Measurements taken from patent US7632851B2, “Benzo[1,2,5]oxadiazoles and benzol[1,2,5]thiadiazoles useful as histopathological staining agents, imaging agents and biomarkers” (Novartis AG, priority 2003, dated 2009).

Assay: Fluorescence of the compound (precondition of the staining test)
Type: physicochemical
Protocol: Four-micrometer thick paraffin sections from an APP23 mouse at 26 months of age are deparaffinized in xylene and rehydrated. 10 mg of the compound are dissolved in 1 mL DMSO and diluted with deionized water 1:10. This staining solution is applied on sections for about 20 min. Section background is cleared by washing with 95% ethanol. Finally sections are dehydrated in 99% ethanol, cleared in xylene and mounted with Vectashield™. Sections are investigated using fluorescence microscopy with the following filter combination: Excitation 450490 nm, emission 510 nm. Twenty micrometer thick cryotom sections from a AD brain cortex are air dried and fixated in 4% PFA for 5 min. After washing in tap water sections are stained either with Thioflavine S or with the compound for 5 min and further processed as described above. The compound is dissolved in DMSO and diluted to a final concentration of 0.01% with 50% Ethanol, Thioflavine S is dissolved in 50% Ethanol, final concentration is 0.01%.
For CNc1cccc(-c2ccc3nonc3c2)c1 [Example 4, (3Benzo[1,2,5]oxadiazol-5-yl-phenyl)-methyl-amine], the Fluorescence was “not fluorescent”. For FCCOc1ccc(-c2ccc3nonc3c2)cc1 [Example 5, 5-[4-(2-Fluoro-ethoxy)-phenyl]-benzo[1,2,5]oxadiazole], the Fluorescence was “not fluorescent”. For O=C(NCCF)c1cncc(-c2ccc3nonc3c2)c1 [Example 11, 5Benzo[1,2,5]oxadiazol-5-yl-N-(2-fluoro-ethyl)-nicotinamide], the Fluorescence was “not fluorescent”. With O=C(NCCF)c1cnccc1-c1ccc2nonc2c1 [Example 12, 4Benzo[1,2,5]oxadiazol-5-yl-N-(2-fluoro-ethyl)-nicotinamide] the Fluorescence was “not fluorescent”. With CNc1ccc(-c2ccc3nonc3c2)cc1[N+](=O)[O-] [Example 21, (4Benzo[1,2,5]oxadiazol-5-yl-2-nitro-phenyl)-methyl-amine] the Fluorescence was “not fluorescent”.
